The values below are quoted from earlier work in patent US20220265833A1, “ASPARTIC PROTEASE-TRIGGERED ANTIFUNGAL HYDROGELS” (priority 2017, published 2022).

The data set concerns Saps.

Square brackets hold non-standard residues; d marks the D form. Ends that are not written are not given here. Phe(4-NO2) = N[C@@H](Cc1ccc([N+](=O)[O-])cc1)C(=O)O

Regarding “LAF(p-NO2)FGAPK (LA[Phe(4-NO2)]FGAPK) [LFFK.AG]”, the “rank of peptide-Sap catalytic efficiency” value was “In order of decreasing catalytic efficiencies, these peptides were: LFFK.AG, LFFK.A2, and LFFK”.
On to “LAF(p-NO2)FLAPK (LA[Phe(4-NO2)]FLAPK) [LFFK.A2]”, for which the “rank of peptide-Sap catalytic efficiency” value was “In order of decreasing catalytic efficiencies, these peptides were: LFFK.AG, LFFK.A2, and LFFK”.
In the case of “LRF(p-NO2)↓FLAPK (LR[Phe(4-NO2)]FLAPK) [LFFK]”, the “rank of peptide-Sap catalytic efficiency” value is “In order of decreasing catalytic efficiencies, these peptides were: LFFK.AG, LFFK.A2, and LFFK”.
